One test has as its system mouse. The experiment in a line: Angiogenesis action in vivo examined by DAS assay (microcell embedded in the back of mouse). The following applies: for angiogenic activity / angiogenesis action (summary in words): DAS assay in mice; for Angiogenesis Magnitude (number of newly formed spiral blood vessels): peptide 10 μg/ml in DMEM injected into microcell in back of mouse, observed five days later; for formation of capillary / spiral blood vessels in tissue contacting the microcell (observation): peptide 10 μg/ml in DMEM; for formation of capillary / spiral blood vessels in tissue contacting the microcell (observation) / angiogenesis magnitude: microcell in back of mouse, five days; for angiogenesis magnitude: peptide-bound gelatin collagen I mixture solution 10 μg/ml. As for the experimental part:
A solution containing the peptide at a concentration of 10 μg/ml in DMEM (Dulbecco's modified Eagle medium) used as a cell culture medium was prepared.
The magnitude indicates the number of newly formed spiral blood vessels, and M0 means that the number is 0, M1 means 1 to 10, M2 means 11 to 20, M3 means 21 to 30, M4 means 31 to 40, M5 means 41 to 50 and M6 means 51 or more. Thus, the larger the magnitude M, the higher the angiogenic activity.
The AGP conjugate (prepared in Example 10) having a concentration of 100 μg/ml was dissolved in collagen I at a ratio of 1:10 to obtain a peptide-bound gelatin collagen mixture solution having a concentration of 10 μg/ml.

In test [1] the test system is transformed rat lung endothelial cells (TRLECs). Put plainly: Angiogenic action in three-dimensionally cultured vascular endothelial tissue (tube formation). The test is classed as cell-based. As for the experimental part:
Rat vascular endothelial cells were three-dimensionally cultured in the presence of AGP synthesized in Example 1. As the cells, transformed rat lung endothelial cells (TRLECs) were used. TRLECs were placed in a collagen I layer mixed with the peptide solution, which contained 10 μg/ml of AGP, and cultured in a carbon dioxide gas incubator for 14 days. Control experiments were carried out in the absence of a factor. And positive control experiments were performed in the presence of VEGF, which is known as a potent angiogenesis factor.
No tubes were detected in the control at all. […] It was observed that a plurality of microvilli were found on the inner surfaces of the tubes. […] Tight junction formation was observed where the endothelial cells were firmly bound. These observations indicate that the endothelial cells acquired polarity and formed tubes. The polarity means that a cell develops regions having different functions such as head and tail. No polarity is given to the endothelial cells when the endothelial cells are cultured in a usual way, and so no tubes are formed.
Rat vascular endothelial cells were three-dimensionally cultured in the presence of AGP-bound gelatin synthesized in Example 10. As the cells, transformed rat lung endothelial cells (TRLECs) were used. Peptide AGP-bound gelatin (conjugate) and collagen type I were mixed at a ratio of 1:10, and TRLECs were placed in a layer containing the conjugate-collagen mixture solution, having a final concentration of 10 μg (microgram/ml) and cultured in a carbon dioxide gas incubator for 14 days. Control experiments were carried out in the absence of a factor, and in the presence of VEGF known as an angiogenesis factor.
No tube formations were detected in the control at all. […] It was observed that a plurality of microvilli were formed on the inner surfaces of the tubes. […] Tight junction formation was observed where the endothelial cells were firmly bound. These observations indicate that the endothelial cells acquired polarity and formed tubes.

Where [2] appears, read: TRLECs in collagen I layer, 10 μg/ml of AGP, cultured 14 days, microscope.

Square brackets hold non-standard residues; d marks the D form. Ends that are not written are not given here.

In the case of “AGP4: AGP heptapeptide wherein the fourth amino acid tyrosine was substituted by alanine (SVVAGLR; Oligopeptide not having angiogenic activity)”, in the test with mouse, the “angiogenic activity / angiogenesis action (summary in words)” value was “angiogenesis action was lost”, the “Angiogenesis Magnitude (number of newly formed spiral blood vessels)” value is “M0 (M0 means that the number is 0)” and the “formation of capillary / spiral blood vessels in tissue contacting the microcell (observation)” value is “not observed at all”.

As for “AGP: heptapeptide (angiogenic peptide) having the amino acid sequence shown in SEQ ID NO: 1 (SVVYGLR; Oligopeptide having angiogenic activity)”, the “tube-like structure formation by endothelial cells” value (shortened to “tube-like structure formation”) in test [1] (setting [2]) is listed as “arranged in the tube-like structure”. The “lengths of the tubes formed, compared with VEGF” value in test [1] (TRLECs in collagen I layer, 10 μg/ml, 14 days) was “significantly longer”. Also, in the test on mouse, the “angiogenic activity / angiogenesis action (summary in words)” value is listed as “strong (prominent) angiogenesis action”, the “Angiogenesis Magnitude (number of newly formed spiral blood vessels)” value was “M5 (M5 means 41 to 50)”, the “formation of capillary / spiral blood vessels in tissue contacting the microcell (observation)” value was “a number of branched capillary blood vessels were formed” and the angiogenesis magnitude result is “M5 (M5 means 41 to 50)”.

As to “GLR (Oligopeptide not having angiogenic activity) [compound 7]”, the “Angiogenesis Magnitude (number of newly formed spiral blood vessels)” value in the test with mouse is “M0 (M0 means that the number is 0)”.

As to “GRGDSVVYGLR (Oligopeptide having angiogenic activity) [Example 16]”, the “angiogenic activity / angiogenesis action (summary in words)” value in the test with mouse was “high angiogenic activities”.

On to “SVV (Oligopeptide not having angiogenic activity) [compound 4]”, for which, in the test on mouse, the “Angiogenesis Magnitude (number of newly formed spiral blood vessels)” value is reported as “M0 (M0 means that the number is 0)”.

SVV yGLR (SVV[dY]GLR) [Example 18]: the “Angiogenesis Magnitude (number of newly formed spiral blood vessels)” value in the test with mouse was “M2 (M2 means 11 to 20)”.

In the case of “SVVFGLR (Oligopeptide having angiogenic activity) [Example 12]”, the entries for the “angiogenic activity / angiogenesis action (summary in words)” value in the test with mouse (listed as SEQ ID NO: 9) and in the test on mouse (listed as SEQ ID NO:9) were “especially high angiogenic activity” and “higher angiogenic activity than the peptide having the amino acid sequence shown in SEQ ID NO: 1”, respectively. For the same substance, the “Angiogenesis Magnitude (number of newly formed spiral blood vessels)” value with mouse was “M6 (M6 means 51 or more)”.

With “SVVWGLR (Oligopeptide having angiogenic activity) [Example 19]”, in the test on mouse, the “Angiogenesis Magnitude (number of newly formed spiral blood vessels)” value is listed as “M3 (M3 means 21 to 30)”.

Regarding “SVVY (Oligopeptide having angiogenic activity) [Example 21]”, the “Angiogenesis Magnitude (number of newly formed spiral blood vessels)” value in the test on mouse is given as “M1 (M1 means 1 to 10)”.

Regarding “SVVYG (Oligopeptide having angiogenic activity) [Example 20]”, in the test on mouse, the “Angiogenesis Magnitude (number of newly formed spiral blood vessels)” value was “M2 (M2 means 11 to 20)”.

Turning to “SVVYGL (Oligopeptide having angiogenic activity) [Example 13]”, the “Angiogenesis Magnitude (number of newly formed spiral blood vessels)” value with mouse is “M5 (M5 means 41 to 50)”.

Turning to “SVVYGLRG (Oligopeptide having angiogenic activity) [Example 15]”, the “angiogenic activity / angiogenesis action (summary in words)” value with mouse is recorded as “high angiogenic activities”.

With VEGF, the “tube-like structure formation” value in test [1] (setting [2]) is recorded as “arranged in the tube-like structure”. In test [1] (TRLECs in conjugate-collagen type I mixture (1:10), final concentration 10 μg/ml, 14 days), the “tube-like structure formation” value was “arranged in the tube-like structure”. Besides, in the test with mouse, the “Angiogenesis Magnitude (number of newly formed spiral blood vessels)” value is recorded as “M3 (M3 means 21 to 30)” and the angiogenesis magnitude result is on record as “M3 (M3 means 21 to 30)”.

Regarding “VVYGLR (Oligopeptide having angiogenic activity) [Example 14]”, the “Angiogenesis Magnitude (number of newly formed spiral blood vessels)” value in the test with mouse is “M5 (M5 means 41 to 50)”.

Turning to “VYGLR (Oligopeptide not having angiogenic activity) [compound 5]”, the “Angiogenesis Magnitude (number of newly formed spiral blood vessels)” value with mouse is reported as “M0 (M0 means that the number is 0)”.

For “YGLR (Oligopeptide not having angiogenic activity) [compound 6]”, the “Angiogenesis Magnitude (number of newly formed spiral blood vessels)” value in the test with mouse is “M0 (M0 means that the number is 0)”.

The values are drawn from patent US20040266696A1, “Angiogenesis drugs” (priority 2001, published 2004).
